How the values were obtained:
[1] = tested on: Rat messangial cell cell line HBZY-1; test: Hypertrophy of rat mesangial cells cultured under high glucose (HE staining); type: cell-based; conditions: high glucose 25 mmol/L, 48 h, extract 0.1 g/L, compounds 1, 0.1, 0.01 μmol/L, co-use 0.06:0.03, 0.05:0.05, 0.03:0.06 μmol/L
Description: (§1) Take the rat mesangial cells in log phase growth, prepare into unicell suspension (5×10^4 cells/ml) with 5% DMEM medium of newborn calf serum, inoculate to the 24 well plate coated with coverslip for 1 ml/well (cell quantity: 5×10^4/well), incubated under 5% CO2 incubator at 37° C. for 24 hours, added the DMEM medium without serum, incubated 24 hours to make all the cells to anestrum. Discard the supernatant, added 900 μl DMEM medium and 100 μl different concentration amylaceum (each concentration for 3 repeat) and incubated 24 h, 48 h, 72 h and 96 h, respectively. Observed the modeling results after staining with HE and PAS. […] Put the coverslips pre-treatment by poly-L-lysine into 24-well cell culture plates before added the unicell suspension, then cultured these cells until the step of synchronization. […] Each group repeats for 3 times. Then, all the groups are incubated under 5% CO2 incubator at 37° C. for 48 h. After that, take out of the coverslips for HE staining, PAS staining and immunocytochemistry staining Routine HE Staining, Routine PAS Staining, CTGF Staining

[2] = tested on: CTGF; test: CTGF express of rat mesangial cells cultured under high glucose (immunocytochemistry); type: cell-based; conditions: high glucose 25 mmol/L, 48 h, CTGF staining; extract 0.1 g/L, compounds 1, 0.1, 0.01 μmol/L, co-use 0.06:0.03, 0.05:0.05, 0.03:0.06 μmol/L
Description: as §1, with “Routine HE Staining, Routine PAS Staining, CTGF Staining” left out

[3] = tested on: db|db mouse; test: Urine volume, urine total protein and urine creatinine in 24 hours of db|db mouse in diabetic nephropathy; type: in vivo; conditions: for Total protein / Urine creatinine / Urine volume: 24 hour urine after 5 weeks; for urine creatinine in 24 hours / urine total protein in 24 hours / urine volume in 24 hours: vs model group
Description: (§2) During the experiment, all the mouse are bred in lamina flow cage, free to food and water. Water and underpad are changed every day to keep the cage clean, and the water, seedstuff, underpad are stationary. […] All the appliances and food are sterilized everyday. […] Moreover, 10 8-week-old B6 mouse are taken as the normal control. Each group is given 0.4 ml corresponding drug in different concertration or physiological saline by intragastric administration for 5 weeks. Determinate the food-intake and water-intake, weigh every week, determinate the blood glucose every week.

[4] = tested on: db|db mouse; test: Blood glucose of db|db mouse in diabetic nephropathy; type: in vivo; conditions: for Blood glucose value: db|db mouse; for blood glucose of db|db mouse: final phase of administration, vs model group, P<0.05
Description: as §2

[5] = tested on: db|db mouse; test: Weight of db|db mouse of diabetic nephropathy; type: in vivo; conditions: for Weight: db|db mouse; for weight of db|db mouse: vs model group, P<0.05, intragastric
Description: as §2

[6] = tested on: Rat messangial cell cell line HBZY-1; test: Extracellular matrix accrementition of rat mesangial cells cultured under high glucose (PAS staining); type: cell-based; conditions: high glucose 25 mmol/L, 48 h, extract 0.1 g/L, compounds 1, 0.1, 0.01 μmol/L, co-use 0.06:0.03, 0.05:0.05, 0.03:0.06 μmol/L
Description: as §1

[7] = tested on: db|db mouse; test: Kidney weight and kidney index of db|db mouse in diabetic nephropathy; type: in vivo; conditions: after 5 weeks; for Kidned index: kidney weight/body weight×1000
Description: as §2

[8] = 2 weeks, 0.5 mg/kg intragastric
[9] = 2 weeks, 1.0 mg/kg intragastric
[10] = 2 weeks, 2.0 mg/kg intragastric
[11] = 3 weeks, 0.5 mg/kg intragastric
[12] = 3 weeks, 1.0 mg/kg intragastric
[13] = 3 weeks, 2.0 mg/kg intragastric
[14] = 4 weeks, 0.5 mg/kg intragastric
[15] = 4 weeks, 1.0 mg/kg intragastric
[16] = 4 weeks, 2.0 mg/kg intragastric
[17] = 5 weeks, 0.5 mg/kg intragastric
[18] = 5 weeks, 1.0 mg/kg intragastric
[19] = 5 weeks, 2.0 mg/kg intragastric

COc1cc2ccc(=O)oc2cc1O [7-hydroxy-6-methoxycomarin, 7-hydroxy-6-methoxycoumarin]
hypertrophy of rat mesangial cells induced by high glucose [1]: restrain significantly the hypertrophy | CTGF express of rat mesangial cells induced by high glucose [2]: decrease the CTGF express | Total protein ([3]; 0.5 mg/kg intragastric): 1.398 ± 0.372 mg | Urine creatinine ([3]; 0.5 mg/kg intragastric): 1.85 ± 0.56 mmol/L | Urine volume ([3]; 0.5 mg/kg intragastric): 0.95 ± 0.34 mL | Total protein ([3]; 1.0 mg/kg intragastric): 1.102 ± 0.249 mg | Urine creatinine ([3]; 1.0 mg/kg intragastric): 3.20 ± 0.85 mmol/L | Urine volume ([3]; 1.0 mg/kg intragastric): 0.75 ± 0.25 mL | Total protein ([3]; 2.0 mg/kg intragastric): 0.878 ± 0.352 mg | Urine creatinine ([3]; 2.0 mg/kg intragastric): 2.81 ± 0.76 mmol/L | Urine volume ([3]; 2.0 mg/kg intragastric): 0.78 ± 0.31 mL | urine creatinine in 24 hours [3]: elevate the urine creatinine | urine total protein in 24 hours [3]: decrease | urine volume in 24 hours [3]: decrease the urine volume | Blood glucose value ([4]; 1 week, 0.5 mg/kg intragastric): 13.3 ± 4.5 mmol/L | Blood glucose value ([4]; 1 week, 1.0 mg/kg intragastric): 13.5 ± 4.0 mmol/L | Blood glucose value ([4]; 1 week, 2.0 mg/kg intragastric): 13.8 ± 4.7 mmol/L | Blood glucose value [4, 8]: 13.4 ± 2.7 mmol/L | Blood glucose value [4, 9]: 13.0 ± 3.2 mmol/L | Blood glucose value [4, 10]: 13.3 ± 2.7 mmol/L | Blood glucose value [4, 11]: 13.5 ± 3.2 mmol/L | Blood glucose value [4, 12]: 12.6 ± 4.8 mmol/L | Blood glucose value [4, 13]: 13.1 ± 4.7 mmol/L | Blood glucose value [4, 14]: 12.1 ± 3.6 mmol/L | Blood glucose value [4, 15]: 10.8 ± 2.5 mmol/L | Blood glucose value [4, 16]: 10.4 ± 3.9 mmol/L | Blood glucose value [4, 17]: 13.0 ± 2.2 mmol/L | Blood glucose value [4, 18]: 10.4 ± 2.5 mmol/L | Blood glucose value [4, 19]: 11.3 ± 4.4 mmol/L | blood glucose of db|db mouse [4]: remarkably decrease the blood glucose | Weight ([5]; 0 week, 0.5 mg/kg intragastric): 23.2 ± 0.6 g | Weight ([5]; 0 week, 1.0 mg/kg intragastric): 24.1 ± 0.5 g | Weight ([5]; 0 week, 2.0 mg/kg intragastric): 23.9 ± 0.5 g | Weight ([5]; 1 week, 0.5 mg/kg intragastric): 30.6 ± 1.2 g | Weight ([5]; 1 week, 1.0 mg/kg intragastric): 31.8 ± 1.0 g | Weight ([5]; 1 week, 2.0 mg/kg intragastric): 32.0 ± 1.3 g | Weight [5, 8]: 36.4 ± 1.5 g | Weight [5, 9]: 33.7 ± 1.4 g | Weight [5, 10]: 34.3 ± 1.9 g | Weight [5, 11]: 40.1 ± 2.5 g | Weight [5, 12]: 38.8 ± 1.4 g | Weight [5, 13]: 39.5 ± 1.8 g | Weight [5, 14]: 43.0 ± 2.1 g | Weight [5, 15]: 42.5 ± 2.5 g | Weight [5, 16]: 44.0 ± 3.2 g | Weight [5, 17]: 47.0 ± 3.9 g | Weight [5, 18]: 45.8 ± 3.0 g | Weight [5, 19]: 45.7 ± 4.5 g | weight of db|db mouse ([5]; 5 weeks): restrain the weight | extracellular matrix of rat mesangial cells induced by high glucose [6]: decrease the extracellular matrix | kidney index [7]: obviously decrease | kidney weight [7]: obviously decrease | Kidned weight ([7]; 0.5 mg/kg intragastric): 0.29 ± 0.02 g | Kidned index ([7]; 0.5 mg/kg intragastric): 12.6 ± 1.0 ‰ | Kidned weight ([7]; 1.0 mg/kg intragastric): 0.25 ± 0.03 g | Kidned weight ([7]; 2.0 mg/kg intragastric): 0.24 ± 0.04 g | Kidned index ([7]; 2.0 mg/kg intragastric): 9.1 ± 1.7 ‰

O=c1ccc2ccc(O)cc2o1 [7-hydroxycoumarin]
hypertrophy of rat mesangial cells induced by high glucose [1]: restrain significantly the hypertrophy | CTGF express of rat mesangial cells induced by high glucose [2]: decrease the CTGF express | Total protein ([3]; 0.5 mg/kg intragastric): 1.205 ± 0.541 mg | Urine creatinine ([3]; 0.5 mg/kg intragastric): 2.06 ± 0.65 mmol/L | Urine volume ([3]; 0.5 mg/kg intragastric): 1.03 ± 0.28 mL | Total protein ([3]; 1.0 mg/kg intragastric): 0.996 ± 0.338 mg | Urine creatinine ([3]; 1.0 mg/kg intragastric): 2.30 ± 0.71 mmol/L | Urine volume ([3]; 1.0 mg/kg intragastric): 0.72 ± 0.30 mL | Total protein ([3]; 2.0 mg/kg intragastric): 1.147 ± 0.305 mg | Urine creatinine ([3]; 2.0 mg/kg intragastric): 2.79 ± 0.54 mmol/L | Urine volume ([3]; 2.0 mg/kg intragastric): 0.74 ± 0.33 mL | urine creatinine in 24 hours [3]: elevate the urine creatinine | urine total protein in 24 hours [3]: decrease | urine volume in 24 hours [3]: decrease the urine volume | Blood glucose value ([4]; 1 week, 0.5 mg/kg intragastric): 13.7 ± 4.1 mmol/L | Blood glucose value ([4]; 1 week, 1.0 mg/kg intragastric): 13.4 ± 4.6 mmol/L | Blood glucose value ([4]; 1 week, 2.0 mg/kg intragastric): 13.0 ± 3.6 mmol/L | Blood glucose value [4, 8]: 13.6 ± 2.9 mmol/L | Blood glucose value [4, 9]: 13.4 ± 2.6 mmol/L | Blood glucose value [4, 10]: 13.1 ± 5.1 mmol/L | Blood glucose value [4, 11]: 12.9 ± 2.9 mmol/L | Blood glucose value [4, 12]: 13.9 ± 4.3 mmol/L | Blood glucose value [4, 13]: 13.7 ± 5.1 mmol/L | Blood glucose value [4, 14]: 11.2 ± 4.0 mmol/L | Blood glucose value [4, 15]: 11.2 ± 4.4 mmol/L | Blood glucose value [4, 16]: 10.1 ± 2.4 mmol/L | Blood glucose value [4, 17]: 12.1 ± 1.9 mmol/L | Blood glucose value [4, 18]: 10.3 ± 2.0 mmol/L | Blood glucose value [4, 19]: 10.6 ± 3.0 mmol/L | blood glucose of db|db mouse [4]: remarkably decrease the blood glucose | Weight ([5]; 0 week, 0.5 mg/kg intragastric): 24.5 ± 0.5 g | Weight ([5]; 0 week, 1.0 mg/kg intragastric): 23.4 ± 0.5 g | Weight ([5]; 0 week, 2.0 mg/kg intragastric): 23.7 ± 0.6 g | Weight ([5]; 1 week, 0.5 mg/kg intragastric): 31.5 ± 1.5 g | Weight ([5]; 1 week, 1.0 mg/kg intragastric): 30.2 ± 1.4 g | Weight ([5]; 1 week, 2.0 mg/kg intragastric): 30.3 ± 0.5 g | Weight [5, 8]: 35.8 ± 1.8 g | Weight [5, 9]: 34.6 ± 1.4 g | Weight [5, 10]: 35.5 ± 1.7 g | Weight [5, 11]: 39.4 ± 2.0 g | Weight [5, 12]: 40.0 ± 2.7 g | Weight [5, 13]: 38.6 ± 1.9 g | Weight [5, 14]: 43.9 ± 3.1 g | Weight [5, 15]: 43.1 ± 2.8 g | Weight [5, 16]: 42.3 ± 2.8 g | Weight [5, 17]: 46.4 ± 4.6 g | Weight [5, 18]: 45.2 ± 4.1 g | Weight [5, 19]: 46.1 ± 5.3 g | weight of db|db mouse ([5]; 5 weeks): restrain the weight | extracellular matrix of rat mesangial cells induced by high glucose [6]: decrease the extracellular matrix | kidney index [7]: obviously decrease | kidney weight [7]: obviously decrease | Kidned weight ([7]; 0.5 mg/kg intragastric): 0.28 ± 0.04 g | Kidned index ([7]; 0.5 mg/kg intragastric): 11.8 ± 1.5 ‰ | Kidned weight ([7]; 1.0 mg/kg intragastric): 0.26 ± 0.03 g | Kidned weight ([7]; 2.0 mg/kg intragastric): 0.27 ± 0.02 g | Kidned index ([7]; 2.0 mg/kg intragastric): 9.4 ± 0.3 ‰

Source: US20100267819A1, “PHARMACEUTICAL COMPOSITION FOR DIABETIC NEPHROPATHY AND ITS PREPARATION AND APPLICATION” (Guangzhou Consun Medicine R&D Medicine, priority 2009, published 2010)
